For 9 compounds, GI50 and TGI results are on record in PubChem BioAssay (NCI).

What all share (test): DTP human tumour cell line panel, 48 h
In assay [1] the test system is HCT-15 colon.
The subject of assay [2] is SN12C renal.
In assay [3] the test system is LOX IMVI melanoma.
Assay [4] concerns NCI-H226 lung.
Assay [5] relates to OVCAR-4 ovarian.
The test system of assay [6] is SW-620 colon.
In assay [7] the test system is SK-MEL-2 melanoma.
For assay [8], the system named is MOLT-4 leukemia.
In assay [9] the test system is UACC-62 melanoma.
Assay [10] has as its system IGROV1 ovarian.

Molecules are shown by their SMILES. “And” between values parts separate entries of the source, which are not always exact repeats. Equal entries are not always repeated.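 Five compound concentrations were applied to cells in 96-well plates for 48 hours; endpoints were derived by simple linear interpolation of the resulting dose-response curve. GI50 = concentration required for 50% inhibition of growth. TGI marks complete inhibition of growth.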

`O=C(O[C@H]1CN[C@H](C#Cc2cc3ncnc(Nc4ccc(Cc5ccccc5)cc4)c3s2)C1)N1CCOCC1`: the GI50 in [1] is 7.08 µM; in assay [2] it was 4.08 µM; in assay [3], 4 µM; in assay [4] it was 5.01 µM; in [5], 6.22 µM; in [6] it was 5.93 µM. Also, the GI50 in assay [7] was 5.41 µM; in assay [8], 6.93 µM; in [9] it was 6.25 µM; in assay [10], 2.45 µM. In addition, the TGI was more than 25 µM in assay [1]; more than 25 µM in assay [2]; 8.03 µM in assay [3]; 15.7 µM in assay [4]; more than 25 µM in assay [5]; 17.7 µM in assay [6]. The TGI in assay [7] was 14.4 µM; in assay [8], more than 25 µM; in assay [9], more than 23.5 µM; in assay [10], more than 20.1 µM.
With `CCCCCCCCC(=O)CCCCCCCCC(=O)O`, the TGI in assay [2] was 76.2 µM; in assay [3], 30.2 µM; in assay [4] it was 63.6 µM; in assay [5], more than 100 µM; in assay [6], more than 100 µM; in assay [7] it was more than 100 µM. In addition, the TGI in assay [8] came to 40.2 µM; in [9] it was 54.6 µM; in assay [10], 36.4 µM.
For `CC12Oc3ccc4ccccc4c3C1c1c(ccc3ccccc13)O2` (configuration not stated), the TGI in assay [2], in [3], in assay [4], in assay [5], in [6] and in assay [7] was more than 100 µM each time. Moreover, the TGI in assay [8], in assay [9] and in assay [10] was more than 100 µM each time.
As for `CCC1(O)C(=O)OCc2c1cc1n(c2=O)Cc2c-1nc1ccccc1c2OC` (configuration not stated), the TGI in assay [1] was determined as 23.7 µM; in assay [3], 0.441 µM; in assay [4], 0.12 µM; in [5], 2.55 µM; in assay [6], 29 µM; in assay [7] it was 14.7 µM. The figures for the TGI in [8], in [9] and in assay [10] were less than 0.0195 µM, 0.413 µM and 5.65 µM, respectively.
With `O=C1C(CN(Cc2ccccc2)Cc2ccccc2)CCCC1CN(Cc1ccccc1)Cc1ccccc1` (configuration not stated), the GI50 in assay [1] is 14.2 µM and > 100 µM; in assay [2], 13.1 µM and > 79 µM; in assay [3] it was 14.1 µM and > 77.1 µM; in assay [5], 20 µM and > 79.8 µM; in assay [6], more than 100 µM; in assay [7], 19.6 µM and > 69.9 µM. Further, in assay [9], the GI50 is 29.2 µM and > 100 µM. Further, the TGI was 21.3 µM and > 100 µM in assay [1]; 25.8 µM and > 100 µM in [2]; 28.3 µM and > 100 µM in [3]; more than 100 µM in [4]; 36.6 µM and > 100 µM in assay [5]; more than 100 µM in [6]. In addition, the TGI is 36 µM and > 100 µM in assay [7]; more than 100 µM in assay [8]; 45.2 µM and > 100 µM in assay [9]; more than 100 µM in assay [10].
`O=[N+]([O-])c1ccc(Oc2cccnc2)c([N+](=O)[O-])c1`: the GI50 was 3.75 µM in assay [1]; 4.3 µM in assay [2]; 3.16 µM in [3]; 2.97 µM in [4]; 6.4 µM in assay [5]; 3.27 µM in assay [6]. In addition, the GI50 is 3.97 µM in assay [7], 6.08 µM in [8], 3.75 µM in assay [9] and 3.95 µM in [10]. Also, the TGI in assay [1] is more than 100 µM; in [2], 23.2 µM; in assay [3], 13.3 µM; in assay [4], 25.5 µM; in assay [5], more than 100 µM; in assay [6], 12.5 µM. For the same compound, the TGI was 14.8 µM in assay [7], 32.2 µM in assay [8], 17.3 µM in assay [9] and more than 100 µM in assay [10].
Turning to `CCC[CH2][Sn]([CH2]CCC)([O]C(=O)c1cc(OC)c(OC)c(OC)c1)[O]C(=O)c1cc(OC)c(OC)c(OC)c1`, the GI50 was 1.51 µM in assay [2]; 0.695 µM in assay [3]; 1.21 µM in [4]; 1.48 µM in assay [5]; 0.973 µM in assay [6]; 1.1 µM in assay [7]. For the same compound, the GI50 in [8] was 0.505 µM; in assay [9] it was 0.892 µM; in [10], 1.32 µM. Also, the TGI in [2] turned out to be 3.68 µM; in assay [3], 2.77 µM; in assay [4], 2.59 µM; in assay [5], 2.9 µM; in assay [6], 2.72 µM; in [7], 2.31 µM. The TGI in assay [8] worked out at 4.11 µM; in assay [9], 2.12 µM; in assay [10], 2.73 µM.
With `NC(=O)Cc1ccccc1Oc1nccc(-c2c(-c3ccc(F)cc3)ncn2C2CCNCC2)n1`, the GI50 in assay [1], in [2], in assay [3], in assay [4], in assay [5] and in assay [6] was more than 25 µM each time. Further, the GI50 in assay [7], in [8], in assay [9] and in assay [10] was more than 25 µM each time. Also, the TGI in [1], in [2], in assay [3], in [4], in assay [5] and in assay [6] was more than 25 µM each time. For the same compound, the TGI in assay [7], in assay [8], in assay [9] and in assay [10] was more than 25 µM each time.
With `[Ce+3].[Cl-].[O-]/N=C(\c1ccccc1)c1ccccn1.[O-]/N=C(\c1ccccc1)c1ccccn1.[O-]/N=C(\c1ccccc1)c1ccccn1`, the GI50 in assay [1] was 38.1 µM; in assay [2] it was 47.9 µM; in [3], 26 µM; in assay [4], 21.5 µM; in [5] it was 55 µM; in assay [6] it was 46.1 µM. Besides, the GI50 is 30.9 µM in assay [7], 27.7 µM in [8], 39.7 µM in assay [9] and 39.6 µM in assay [10]. For the same compound, the TGI in assay [1] was more than 100 µM; in [2] it was more than 100 µM; in assay [3] it was 64.7 µM; in assay [4] it was 72 µM; in assay [5] it was more than 100 µM; in assay [6], more than 100 µM. The TGI was 76.6 µM in assay [7], more than 100 µM in assay [8], more than 100 µM in assay [9] and more than 100 µM in assay [10].

For orientation: GI50 means the concentration at which growth is held to half of that of the control. A word on the TGI: it is the concentration at which net growth stops.
